According to US8466089B2, “Pyrazole compounds, process for their production and herbicides containing them” (Ishihara Sangyo Kaisha, Ltd., priority 2008, dated 2013):
Where two headings read alike, the source gives them in different places.

Columns and labels:
Format in all cases: in vivo
[1] = tested on: sorgo (Sorghum bicolor Moench) (var.: Lucky Sorgo); assay: Test Example 6, soil column downward movement, sorgo bioassay; details: 14th day after sowing
Procedure: Soil (sterilized soil:sand=3:1) was packed (4 L) into a column (9.5 cm in diameter×40 cm in height, application area: 0.007 m^2), and tap water was dropped from above by a Peristaltic pump before application of the herbicide for the purpose of maintaining the soil moisture to be uniform. Then, 10 mL of a spray solution prepared so that each agent (Compound No. 2-1, the above Reference Compounds 1 and 2) would be at a concentration corresponding to 250 g/ha was dropwise applied by a pipette. After application, water was dropped again at a rate of 400 mL/hr for about 3 hours by means of a Peristaltic pump. After the dropping, the column was left to stand for 1 day, and then the column was vertically evenly divided and seeds of sorgo (Sorghum bicolor Moench) (var.: Lucky Sorgo) were sown in a row. On the 14th day after sowing, the state of growth of the plant was visually observed at 3 cm intervals from the application point of the agent, whereby the germination and the degree of growth were evaluated by a growth inhibition rate (%) of 0 (equivalent to the non-treated area) to 100% (complete kill) to obtain the results in Table 17.
From the above results, the growth inhibition rates of Reference Compounds No. 1 and No. 2 are observed in depths deeper than that of Compound No. 2-1. […] Whereas, Compound No. 2-1 stayed at a shallow portion of soil (in a layer of from 0 to 9 cm).

[2] = tested on: velvetleaf (Abutilon theophrasti MEDIC.); assay: Test Example 5, foliar treatment versus Reference Compounds; details: 3.0 to 3.5 leaf stage, 20th day after application, read-out: Growth inhibition rate (%) (20th day after application) Velvet leaf
Excerpt: (§1) Upland field soil was put into a 1/1,000,000 hectare pot, and seeds of various plants were sown. When the respective plants reached predetermined leaf stage ((1) velvetleaf (Abutilon theophrasti MEDIC.): 3.0 to 3.5 leaf stage, (2) giant foxtail (Setaria faberi Herrm.): 4.0 to 4.5 leaf stage, (3) green foxtail (Setaria viridis L.): 5.0 to 5.5 leaf stage, and (4) corn (Zea mays L.): 4.0 to 4.3 leaf stage, a wettable powder of compound No. 2-1 of the above-mentioned present invention, a wettable powder of the above-mentioned Reference Compound 1 and a wettable powder of the above-mentioned Reference Compound 2, prepared in accordance with a conventional preparation method, were weighed so that the active ingredients became the prescribed amounts, and diluted with water in an amount corresponding to 300 liter per 1 hectare (containing 0.5 vol % of an agricultural spreader (Destiny HC: WINFIELD SOLUTIONS by LLC). The spray solutions thus prepared were applied for foliar treatment by a small sprayer.
(§2) On the 7th to 20th day after application, the state of growth of the respective plants was visually observed, and the herbicidal effect was evaluated by a growth inhibition rate (%) of 0 (equivalent to the non-treated area) to 100% (complete kill).

[3] = tested on: giant foxtail (Setaria faberi Herrm.); assay: as above; details: 4.0 to 4.5 leaf stage, 20th day after application, read-out: Growth inhibition rate (%) (20th day after application) Giant foxtail
Excerpt: as §1, §2

[4] = tested on: green foxtail (Setaria viridis L.); assay: as above; details: 5.0 to 5.5 leaf stage, 18th day after application, read-out: Growth inhibition rate (%) (18th day after application) Green foxtail
Excerpt: as §1, §2

corn (Zea mays L.) = assay: as above; details: 4.0 to 4.3 leaf stage, 7th day after application, read-out: Growth inhibition rate (%) (7th day after application) Corn
Excerpt: as §1, §2

COCCOc1c(S(C)(=O)=O)ccc(C(=O)c2cnn(C(C)C)c2O)c1Cl [Reference Compound 2]
inhibition at 250 g/ha ([1]; depth 0-3 cm, read-out: Growth inhibition rate (%) against sorgo, Depth (cm) from the applied surface 0-3): 48% | inhibition at 250 g/ha ([1]; depth 3-6 cm, read-out: Growth inhibition rate (%) against sorgo, Depth (cm) from the applied surface 3-6): 45% | inhibition at 250 g/ha ([1]; depth 6-9 cm, read-out: Growth inhibition rate (%) against sorgo, Depth (cm) from the applied surface 6-9): 47% | inhibition at 250 g/ha ([1]; depth 9-12 cm, read-out: Growth inhibition rate (%) against sorgo, Depth (cm) from the applied surface 9-12): 43% | inhibition at 250 g/ha ([1]; depth 12-15 cm, read-out: Growth inhibition rate (%) against sorgo, Depth (cm) from the applied surface 12-15): 58% | inhibition at 250 g/ha ([1]; depth 15-18 cm, read-out: Growth inhibition rate (%) against sorgo, Depth (cm) from the applied surface 15-18): 55% | inhibition at 250 g/ha ([1]; depth 18-21 cm, read-out: Growth inhibition rate (%) against sorgo, Depth (cm) from the applied surface 18-21): 61% | inhibition at 250 g/ha ([1]; depth 21-24 cm, read-out: Growth inhibition rate (%) against sorgo, Depth (cm) from the applied surface 21-24): 63% | inhibition at 250 g/ha ([1]; depth 24-27 cm, read-out: Growth inhibition rate (%) against sorgo, Depth (cm) from the applied surface 24-27): 35% | inhibition at 250 g/ha ([1]; depth 27-30 cm, read-out: Growth inhibition rate (%) against sorgo, Depth (cm) from the applied surface 27-30): 8% | inhibition at 3.5 g/ha [2]: 50% | inhibition at 3.5 g/ha [3]: 0% | inhibition at 7 g/ha [4]: 35% | inhibition at 90 g/ha (corn (Zea mays L.)): 25%
